In brackets after ≈: the same amount, converted by molar mass. One block for each compound: values may come before it. Activity calls are given as the source filed them. The calls are words filed in the database; no cut-off is given here.
Assays:
[1] = target: T1, Phospho-N-acetylmuramoyl-pentapeptide-transferase (Escherichia coli) (UniProt E2QF15); assay: Inhibition of recombinant MraY overexpressed in Escherichia coli membranes after 30 mins by radiochemical assay in presence of [14C-D-Ala]-UDPMurNAc-pentapeptide; format: cell membranes
T1 sequence (whole entry): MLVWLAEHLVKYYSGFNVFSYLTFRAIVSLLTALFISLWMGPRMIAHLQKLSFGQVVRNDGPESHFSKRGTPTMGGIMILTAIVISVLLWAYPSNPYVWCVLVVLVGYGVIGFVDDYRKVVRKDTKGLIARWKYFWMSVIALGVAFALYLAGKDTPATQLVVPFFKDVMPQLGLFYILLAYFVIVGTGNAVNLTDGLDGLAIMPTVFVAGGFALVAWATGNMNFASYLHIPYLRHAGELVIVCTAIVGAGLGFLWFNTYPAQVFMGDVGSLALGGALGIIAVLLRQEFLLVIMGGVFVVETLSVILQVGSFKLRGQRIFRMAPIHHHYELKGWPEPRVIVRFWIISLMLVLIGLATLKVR

[2] = target: T1, Phospho-N-acetylmuramoyl-pentapeptide-transferase (Escherichia coli); assay: Inhibition of recombinant MraY overexpressed in Escherichia coli membranes at 25 ug/ml by continuous fluorescence assay; format: cell membranes
Escherichia coli [3] = assay: Inhibition of recombinant Escherichia coli MurG at 50 ug/ml after 30 mins by radiochemical assay in presence of [3H]-UDPGlcNAc
[4] = target: T2, Phospho-N-acetylmuramoyl-pentapeptide-transferase (Escherichia coli, UniProt E2QF15); assay: Inhibition of recombinant MraY overexpressed in Escherichia coli membranes by continuous fluorescence assay; format: cell membranes
T2 sequence (E2QF15 whole entry): T1 sequence (whole entry)

[5] = Inhibition of MraY in Bacillus subtilis membranes by continuous fluorescence assay; format: cell membranes
[6] = Inhibition of MraY in Pseudomonas aeruginosa membranes by continuous fluorescence assay; format: cell membranes
[7] = Inhibition of MraY in Staphylococcus aureus membranes by continuous fluorescence assay; format: cell membranes
[8] = Inhibition of MraY in Micrococcus flavus membranes by continuous fluorescence assay; format: cell membranes
Escherichia coli [9] = assay: Inhibition of recombinant Escherichia coli MurG at 500 ug/ml after 30 mins by radiochemical assay in presence of [3H]-UDPGlcNAc
Pseudomonas aeruginosa = assay: Inhibition of MraY in Pseudomonas aeruginosa membranes at 500 uM by continuous fluorescence assay; format: cell membranes
Staphylococcus aureus = assay: Inhibition of MraY in Staphylococcus aureus membranes at 500 uM by continuous fluorescence assay; format: cell membranes
Micrococcus flavus [10] = assay: Inhibition of MraY in Micrococcus flavus membranes at 500 uM by continuous fluorescence assay; format: cell membranes
Bacillus subtilis = assay: Antimicrobial activity against Bacillus subtilis W23 by liquid culture microtitre plate assay; format: functional
Escherichia coli [11] = assay: Antimicrobial activity against Escherichia coli DH5[alpha] at 1.95 to 125 ug/ml by liquid culture microtitre plate assay; format: functional, organism-based
[12] = target: T1, Phospho-N-acetylmuramoyl-pentapeptide-transferase (Escherichia coli); assay: Inhibition of recombinant MraY overexpressed in Escherichia coli membranes at 100 uM after 30 mins by radiochemical assay in presence of [14C-D-Ala]-UDPMurNAc-pentapeptide; format: cell membranes
[13] = target: T1, Phospho-N-acetylmuramoyl-pentapeptide-transferase (Escherichia coli); assay: Inhibition of recombinant MraY overexpressed in Escherichia coli membranes at 500 uM after 30 mins by radiochemical assay in presence of [14C-D-Ala]-UDPMurNAc-pentapeptide; format: cell membranes
Pseudomonas putida = assay: Antimicrobial activity against Pseudomonas putida ATCC 33015 at 1.95 to 125 ug/ml by liquid culture microtitre plate assay; format: functional, organism-based
Micrococcus flavus [14] = assay: Antimicrobial activity against Micrococcus flavus at 1.95 to 125 ug/ml by liquid culture microtitre plate assay; format: functional, organism-based

Compound: O=C(O)c1ccccc1-c1c2cc(Cl)c(=O)cc-2oc2cc(O)c(Cl)cc12
inhibition [1]: inactive

Compound: CC(=O)N[C@H]1[C@@H](O[C@@H]2O[C@H](CC(O)[C@H]3O[C@@H](n4ccc(=O)[nH]c4=O)[C@H](O)[C@@H]3O)[C@H](O)[C@H](O)[C@H]2NC(=O)/C=C/CC(C)C)O[C@H](CO)[C@@H](N)[C@@H]1O (stereo partly drawn)
inhibition [2]: > 95%

Compound: O=C(O)c1c(Cl)c(Cl)c(Cl)c(Cl)c1-c1c2cc(Br)c(=O)c(Br)c-2oc2c(Br)c(O)c(Br)cc12
IC50 [4]: 32 µM | IC50 [5]: 165 µM | IC50 [6]: 128 µM | IC50 [7]: 254 µM | IC50 [8]: 195 µM | inhibition [1]: Active | inhibition (Escherichia coli [9]): inactive

The next lines start with results.

inhibition (Escherichia coli [3]): > 80%
Compound: RAMOPLANIN

inhibition [1]: inactive
Compound: O=C(O)c1ccccc1-c1c2cc(Br)c(=O)cc-2oc2cc(O)c(Br)cc12

IC50 [4]: 456 µM | IC50 [5]: 386 µM | inhibition (Pseudomonas aeruginosa): 38% | inhibition (Staphylococcus aureus): 0% | inhibition (Micrococcus flavus [10]): 14% | MIC (Bacillus subtilis): 16 µg/mL (≈ 21.1 µM) | inhibition [12]: 20% | inhibition [13]: 60% | inhibition (Escherichia coli [9]): inactive
Compound: COc1cc(C)cc2c(-c3c(O)cc(O)c4c3C[C@@H](C)N[C@@H]4C)cc(-c3cc(-c4c(O)cc(O)c5c4C[C@@H](C)N[C@@H]5C)c4cc(C)cc(OC)c4c3O)c(O)c12 [MICHELLAMINE A]
Activity (Escherichia coli [11]): inactive | Activity (Pseudomonas putida): inactive | Activity (Micrococcus flavus [14]): inactive

From ChEMBL document CHEMBL3351389, “Identification of novel inhibitors of phospho-MurNAc-pentapeptide translocase MraY from library screening: Isoquinoline alkaloid michellamine B and xanthene dye phloxine B” (Bioorg Med Chem, 2014)
